Experimental data taken from PMC5516028, “Molecular tools for GABAA receptors: High affinity ligands for β1-containing subtypes” (Scientific Reports, 2017).

How the values were obtained:
α2β3γ2 GABAA receptors = target: T1, α2β3γ2 GABAA receptors (Rattus norvegicus, UniProt P23576+P63079); parameters: method as in earlier work; settings: published data, ref 1 (Supplementary References), read-out: Approximate EC50; cited from earlier work
T1 construct: expressed in transfected cells; host or cells: Xenopus laevis oocytes, mRNA injected
T1 sequence (P23576 29-451): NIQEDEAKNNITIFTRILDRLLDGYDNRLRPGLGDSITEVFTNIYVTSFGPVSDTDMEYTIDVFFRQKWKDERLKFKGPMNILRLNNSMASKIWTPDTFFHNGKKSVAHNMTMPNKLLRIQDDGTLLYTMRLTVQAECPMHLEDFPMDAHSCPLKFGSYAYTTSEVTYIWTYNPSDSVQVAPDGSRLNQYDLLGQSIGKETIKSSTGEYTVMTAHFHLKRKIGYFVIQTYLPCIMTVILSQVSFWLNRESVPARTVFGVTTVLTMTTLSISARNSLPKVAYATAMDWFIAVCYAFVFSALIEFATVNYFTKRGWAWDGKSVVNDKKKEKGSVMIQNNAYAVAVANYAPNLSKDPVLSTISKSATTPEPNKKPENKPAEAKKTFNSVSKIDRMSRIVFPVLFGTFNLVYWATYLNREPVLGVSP
T1 sequence (P63079 26-473): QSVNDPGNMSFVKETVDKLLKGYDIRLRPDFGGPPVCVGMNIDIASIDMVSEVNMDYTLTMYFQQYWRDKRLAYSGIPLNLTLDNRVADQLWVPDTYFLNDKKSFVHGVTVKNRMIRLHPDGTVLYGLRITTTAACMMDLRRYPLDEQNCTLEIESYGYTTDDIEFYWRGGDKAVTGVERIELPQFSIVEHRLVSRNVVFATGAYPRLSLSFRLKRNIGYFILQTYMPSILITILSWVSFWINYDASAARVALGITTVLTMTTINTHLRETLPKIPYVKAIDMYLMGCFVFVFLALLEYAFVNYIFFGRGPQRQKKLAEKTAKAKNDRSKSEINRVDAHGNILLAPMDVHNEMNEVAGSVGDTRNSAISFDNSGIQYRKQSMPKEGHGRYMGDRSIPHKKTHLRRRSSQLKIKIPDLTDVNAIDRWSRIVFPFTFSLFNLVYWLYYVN
T1 sequence (P18508 39-466 partner): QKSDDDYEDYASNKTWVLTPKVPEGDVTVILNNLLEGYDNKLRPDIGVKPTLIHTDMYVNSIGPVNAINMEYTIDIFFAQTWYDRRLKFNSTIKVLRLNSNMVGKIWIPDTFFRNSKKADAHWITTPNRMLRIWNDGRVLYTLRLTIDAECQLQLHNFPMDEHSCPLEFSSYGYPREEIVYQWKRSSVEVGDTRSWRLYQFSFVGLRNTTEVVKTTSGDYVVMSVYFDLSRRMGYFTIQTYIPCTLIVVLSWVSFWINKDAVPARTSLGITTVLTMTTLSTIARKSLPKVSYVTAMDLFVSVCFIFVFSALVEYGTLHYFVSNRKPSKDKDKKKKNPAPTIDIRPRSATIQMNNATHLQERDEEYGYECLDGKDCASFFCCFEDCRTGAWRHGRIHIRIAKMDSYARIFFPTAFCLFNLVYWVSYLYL

α6β3γ2 GABAA receptors = target: T2, α6β3γ2 GABAA receptors (Rattus norvegicus, UniProt P30191+P63079); parameters: method as in earlier work; settings: published data, ref 1 (Supplementary References), read-out: Approximate EC50; cited from earlier work
T2 construct: expressed in transfected cells; host or cells: Xenopus laevis oocytes, mRNA injected
T2 sequence (P30191 20-453): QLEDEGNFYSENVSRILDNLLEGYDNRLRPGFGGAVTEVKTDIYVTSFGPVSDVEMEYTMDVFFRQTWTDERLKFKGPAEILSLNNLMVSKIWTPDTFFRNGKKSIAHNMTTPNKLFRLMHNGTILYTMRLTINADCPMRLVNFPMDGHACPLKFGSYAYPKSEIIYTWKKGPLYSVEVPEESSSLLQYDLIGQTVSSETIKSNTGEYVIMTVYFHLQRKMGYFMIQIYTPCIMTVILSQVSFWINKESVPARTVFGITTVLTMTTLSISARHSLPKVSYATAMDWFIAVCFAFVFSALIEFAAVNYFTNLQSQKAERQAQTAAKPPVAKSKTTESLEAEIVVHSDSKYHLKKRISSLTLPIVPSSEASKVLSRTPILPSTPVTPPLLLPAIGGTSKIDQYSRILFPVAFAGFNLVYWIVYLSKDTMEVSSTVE
T2 sequence (P63079 26-473): as the sequence (P63079 26-473) above
T2 sequence (P18508 39-466 partner): as the sequence (P18508 39-466 partner) above

α1β2γ2 GABAA receptors = target: α1β2γ2 GABAA receptors; parameters: method as in earlier work; settings: published data, ref 1 (Supplementary References), read-out: Approximate EC50; cited from earlier work
α1β3 GABAA receptors = target: T3, α1β3 GABAA receptors (Rattus norvegicus, UniProt P62813+P63079); parameters: method as in earlier work; settings: published data, ref 1 (Supplementary References), read-out: Approximate EC50; cited from earlier work
T3 construct: expressed in transfected cells; host or cells: Xenopus laevis oocytes, mRNA injected
T3 sequence (P62813 28-455): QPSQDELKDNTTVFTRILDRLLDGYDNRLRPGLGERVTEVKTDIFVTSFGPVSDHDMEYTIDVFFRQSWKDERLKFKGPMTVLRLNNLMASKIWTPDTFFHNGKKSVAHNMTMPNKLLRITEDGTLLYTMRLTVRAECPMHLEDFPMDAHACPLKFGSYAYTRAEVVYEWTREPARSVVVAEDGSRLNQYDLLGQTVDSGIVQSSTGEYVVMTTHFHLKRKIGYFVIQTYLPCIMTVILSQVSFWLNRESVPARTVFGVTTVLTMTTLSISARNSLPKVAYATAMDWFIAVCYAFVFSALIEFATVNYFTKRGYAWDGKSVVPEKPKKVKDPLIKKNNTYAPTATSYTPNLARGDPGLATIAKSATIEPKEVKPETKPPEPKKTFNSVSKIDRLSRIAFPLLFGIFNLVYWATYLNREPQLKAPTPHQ
T3 sequence (P63079 26-473): as the sequence (P63079 26-473) above

α4β3γ2 GABAA receptors = target: T4, α4β3γ2 GABAA receptors (Rattus norvegicus, UniProt P28471+P63079); parameters: method as in earlier work; settings: published data, ref 1 (Supplementary References), read-out: Approximate EC50; cited from earlier work
T4 construct: expressed in transfected cells; host or cells: Xenopus laevis oocytes, mRNA injected
T4 sequence (P28471 36-552): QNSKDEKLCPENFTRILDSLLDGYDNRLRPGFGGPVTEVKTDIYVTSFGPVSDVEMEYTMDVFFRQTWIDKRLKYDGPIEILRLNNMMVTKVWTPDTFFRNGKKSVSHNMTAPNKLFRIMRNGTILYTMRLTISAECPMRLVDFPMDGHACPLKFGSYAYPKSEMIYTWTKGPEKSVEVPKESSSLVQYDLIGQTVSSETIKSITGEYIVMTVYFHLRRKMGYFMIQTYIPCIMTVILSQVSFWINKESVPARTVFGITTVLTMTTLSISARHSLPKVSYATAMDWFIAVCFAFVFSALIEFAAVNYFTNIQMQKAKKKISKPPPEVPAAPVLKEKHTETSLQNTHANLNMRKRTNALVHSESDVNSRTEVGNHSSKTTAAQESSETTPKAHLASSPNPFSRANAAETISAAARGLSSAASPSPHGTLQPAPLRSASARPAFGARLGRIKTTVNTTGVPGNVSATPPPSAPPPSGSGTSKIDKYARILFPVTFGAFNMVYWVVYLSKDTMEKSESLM
T4 sequence (P63079 26-473): as the sequence (P63079 26-473) above
T4 sequence (P18508 39-466 partner): as the sequence (P18508 39-466 partner) above

α1β1γ1 GABAA receptors = target: T5, α1β1γ1 GABAA receptors (Rattus norvegicus, UniProt P15431+P62813); experiment: Two electrode voltage clamp in Xenopus laevis oocytes, α1β1γ1; type: cell-based
T5 construct: expressed in transfected cells; host or cells: Xenopus laevis oocytes, mRNA injected
T5 sequence (P62813 28-455): as the sequence (P62813 28-455) above
T5 sequence (P15431 26-474): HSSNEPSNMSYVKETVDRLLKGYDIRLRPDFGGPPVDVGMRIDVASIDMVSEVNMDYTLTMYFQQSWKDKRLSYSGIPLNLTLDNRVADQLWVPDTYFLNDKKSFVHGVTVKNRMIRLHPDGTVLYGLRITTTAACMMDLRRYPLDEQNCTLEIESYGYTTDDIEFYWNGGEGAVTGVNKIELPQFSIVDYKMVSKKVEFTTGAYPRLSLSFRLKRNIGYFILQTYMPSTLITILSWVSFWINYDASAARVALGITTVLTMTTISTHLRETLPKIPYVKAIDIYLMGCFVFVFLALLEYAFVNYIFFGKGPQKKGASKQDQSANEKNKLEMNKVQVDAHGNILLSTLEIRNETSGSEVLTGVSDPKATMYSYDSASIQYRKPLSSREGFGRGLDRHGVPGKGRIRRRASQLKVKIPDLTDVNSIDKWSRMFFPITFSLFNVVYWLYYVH
T5 sequence (P23574 36-465 partner limits assumed): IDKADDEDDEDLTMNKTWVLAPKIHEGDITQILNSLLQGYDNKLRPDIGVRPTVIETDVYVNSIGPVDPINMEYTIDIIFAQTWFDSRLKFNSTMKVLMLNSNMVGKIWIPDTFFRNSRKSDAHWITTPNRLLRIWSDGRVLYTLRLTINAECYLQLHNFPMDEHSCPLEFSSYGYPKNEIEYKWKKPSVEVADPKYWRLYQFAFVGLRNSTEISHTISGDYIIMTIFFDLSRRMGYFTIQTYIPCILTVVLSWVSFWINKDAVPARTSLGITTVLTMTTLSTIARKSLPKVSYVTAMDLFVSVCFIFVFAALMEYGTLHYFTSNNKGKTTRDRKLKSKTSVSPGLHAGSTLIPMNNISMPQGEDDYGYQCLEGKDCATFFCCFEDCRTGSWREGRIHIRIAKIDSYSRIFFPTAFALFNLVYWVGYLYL
Description: cDNA’s of rat GABAA receptor subunits α1, α4, β1, β2, β3 and γ2S were cloned as described. cDNAs of the rat subunits α2, α3 and α5 were gifts from P. Malherbe, that of α6 and γ1 were gifts of P. Seeburg and that of δ was a gift of C. Czajkowski. The mutants were constructed using the Q5 Site-Directed Mutagenesis Kit (New England Biolabs) following manufacturer’s instruction. We used the wild-type rat β3-pCI vector as template and the primers […] and […] resulting in a substitution of amino acid N41 (AAC) to R (AGG). We used the wild-type rat β1-pCI vector as template and the primers […] and […] resulting in a substitution of amino acid R41 (CGG) to N (AAC). The mutated subunits were confirmed by sequencing.
In vitro transcription of mRNA was based on the cDNA expression vectors encoding for rat GABAA receptor subunits α1–6, β1-3, γ1,2, δ and the two β mutants (β1R41N and β3N41R)[40]. After linearizing the cDNA vectors with appropriate restriction endonucleases, the cDNA was purified and concentrated with the DNA Clean and Contentrator ^TM Kit (Zymoresearch, Catalog No. D4005). Capped transcripts of the purified cDNA were produced using the mMESSAGE mMACHINE® T7 transcription kit (Ambion, TX, USA) and polyadenylated using the Ambion PolyA tailing kit (Ambion). After transcription and polyadenylation the RNA was purified with the MEGAclear ^TM Kit (Ambion, Catalog No. AM1908). The final RNA concentration was measured on NanoDrop® ND-1000 and finally diluted and stored in diethylpyrocarbonate-treated water at −80 °C. For the microinjection, the RNA of αβ receptor combinations was mixed at 1:1 ratio (which leads to αβ receptors that consist of predominantly 3 beta and 2 alpha subunits[27]), for αkβlγm (k = 1–3, l = 1, 3, m = 1, 2) receptors at 1:1:5 ratio, for αkβ3γ2 (k = 4–6) and αkβlδ (k = 1, 4 and 6, l = 1, 3) receptor combinations at 3:1:5 ratio.
Mature female Xenopus laevis (Nasco, WI) were anesthetized in a bath of ice-cold 0.17% Tricain (Ethyl-m-aminobenzoate, Sigma, MO) before decapitation in full accordance with all rules of the Austrian animal protection law (see http://www.ris.bka.gv.at/Dokumente/BgblAuth/BGBLA_2012_I_114/BGBLA_2012_I_114.pdf) and the Austrian animal experiment by-laws (see https://www.ris.bka.gv.at/Dokumente/BgblAuth/BGBLA_2012_II_522/BGBLA_2012_II_522.pdf) which implement the European Directive 2010/63/EU (see http://eur-lex.europa.eu/LexUriServ/LexUriServ.do?uri=OJ:L:2010:276:0033:0079:en:PDF) into the Austrian law (all information accessed on July 27, 2016). The frog’s ovaries were transferred to ND96 medium (96 mM NaCl, 2 mM KCl, 1 mM MgCl2, 5 mM HEPES; pH 7.5). Stage 5–6 oocytes with the follicle cell layer around them were roughly dissected with forceps into packages of 10–15 cells and washed in Ca^2+-free ND96 medium. Cells were then digested with collagenase (type IA, Sigma, NO, 1 mg/mL ND96) at 18 °C shaking at 30 rpm for 30–60 minutes and gently defolliculated with the aid of a glass pipette with appropriate tip diameter and a platinum loop. Defolliculated cells were stored at 18 °C for at least 6 hours in ND96 solution containing penicillin G (10000 IU/100 mL) and streptomycin (10 mg/100 mL) in order to preselect and exclude damaged cells from further treatment. Healthy defolliculated oocytes were injected with an aqueous solution of mRNA. A total of 4.5 ng of mRNA per oocyte was injected with a Nanoject II (Drummond). After injection of mRNA, oocytes were incubated at 18 °C (ND96 + antibiotic) for 2–3 days for αβ receptors and for 3–4 days for αβγ or αβδ receptors before recording. When cells were measured at later time points, oocytes were stored at +4 °C instead of 18 °C.
For electrophysiological recordings, oocytes were placed on a nylon-grid in a bath of Ca^2+-containing NDE solution medium [96 mM NaCl, 5 mM HEPES-NaOH (pH 7.5), 2 mM KCl, 1 mM MgCl2, 1.8 mM CaCl2].

α1β1γ2 GABAA receptors = target: α1β1γ2 GABAA receptors; parameters: method as in earlier work; settings: published data, ref 1 (Supplementary References), read-out: Approximate EC50; cited from earlier work
α5β2γ2 GABAA receptors = target: α5β2γ2 GABAA receptors; parameters: method as in earlier work; settings: published data, ref 1 (Supplementary References), read-out: Approximate EC50; cited from earlier work

EC50 (α1β1γ1 GABAA receptors): 80 nM
activity at 0.001 µM (α1β1γ1 GABAA receptors; read-out: efficacy, % of control current (GABA EC3-5 = 100%), α1β1γ1, 1 nM): 110 ± 9.9%
activity at 1 µM (α1β1γ1 GABAA receptors; read-out: efficacy, % of control current (GABA EC3-5 = 100%), α1β1γ1, 1 µM): 320 ± 17.9%
activity at 10 µM (α1β1γ1 GABAA receptors; read-out: efficacy, % of control current (GABA EC3-5 = 100%), α1β1γ1, 10 µM): 300 ± 20.8%
Hill slope (nH) (α1β1γ1 GABAA receptors; α1β1γ1): 1.1±0.4
SMILES: COc1ccc(-n2nc3c4cc(Cl)ccc4[nH]cc-3c2=O)cc1 [Compound 1, 8-Chloro-2-(4-methoxyphenyl)-2H-pyrazolo[4,3-c]quinolin-3(5H)-one]
EC50 (α2β3γ2 GABAA receptors): ~2200 nM
EC50 (α6β3γ2 GABAA receptors): ~3.3 µM
EC50 (α1β2γ2 GABAA receptors): ~1900 nM
EC50 (α1β3 GABAA receptors): ~1600 nM
EC50 (α4β3γ2 GABAA receptors): ~900 nM
EC50 (α1β1γ2 GABAA receptors): ~100 nM
EC50 (α5β2γ2 GABAA receptors): ~3000 nM
